From PubChem BioAssay AID1919004 (Molecular Pharmacology Branch, DTP, NCI, 2023)
“And” between values parts separate entries of the source, which are not always exact repeats. Identical values can stand only once. One block for each molecule: values may come before it.

Tested on: 883617-216-R-J1-PDC complex spheroids, growth, % test/control
Experiment: Anticancer human tumor 883617-216-R-J1-PDC patient-derived bladder carcinoma cell line growth inhibition [AhR]
Settings: for viability, T/C: stronger effect = lower value
Procedure, shortened: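 Spheroids combined tumor cells with HUVEC endothelial cells and human MSCs as stroma. AhR antagonists were paired with standard or investigational drugs, each dosed in half-log steps down from near clinical Cmax, or from 10 microM where Cmax was unknown.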

[1] = curve of first compound, second compound 0.1 µM
[2] = curve of first compound, second compound 0.316 µM
[3] = curve of first compound, second compound 1 µM
[4] = curve of first compound, second compound 3.16 µM
[5] = curve of first compound, second compound 10 µM
[6] = second compound 0.1 µM, first compound 0.00949 µM
[7] = second compound 0.1 µM, first compound 0.03 µM
[8] = second compound 0.1 µM, first compound 0.0949 µM
[9] = second compound 0.1 µM, first compound 0.3 µM
[10] = second compound 0.316 µM, first compound 0.00949 µM
[11] = second compound 0.316 µM, first compound 0.03 µM
[12] = second compound 0.316 µM, first compound 0.0949 µM
[13] = second compound 0.316 µM, first compound 0.3 µM
[14] = second compound 1 µM, first compound 0.00949 µM
[15] = second compound 1 µM, first compound 0.03 µM
[16] = second compound 1 µM, first compound 0.0949 µM
[17] = second compound 1 µM, first compound 0.3 µM
[18] = second compound 3.16 µM, first compound 0.00949 µM
[19] = second compound 3.16 µM, first compound 0.03 µM
[20] = second compound 3.16 µM, first compound 0.0949 µM
[21] = second compound 3.16 µM, first compound 0.3 µM
[22] = second compound 10 µM, first compound 0.00949 µM
[23] = second compound 10 µM, first compound 0.03 µM
[24] = second compound 10 µM, first compound 0.0949 µM
[25] = second compound 10 µM, first compound 0.3 µM
[26] = second compound 0.1 µM, first compound 0.000949 µM
[27] = second compound 0.1 µM, first compound 0.003 µM
[28] = second compound 0.316 µM, first compound 0.000949 µM
[29] = second compound 0.316 µM, first compound 0.003 µM
[30] = second compound 1 µM, first compound 0.000949 µM
[31] = second compound 1 µM, first compound 0.003 µM
[32] = second compound 3.16 µM, first compound 0.000949 µM
[33] = second compound 3.16 µM, first compound 0.003 µM
[34] = second compound 10 µM, first compound 0.000949 µM
[35] = second compound 10 µM, first compound 0.003 µM
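Further: exposure lasted 7 days after dosing on day 3 of spheroid growth.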

IC50 [1]: 443 nM
IC50 [2]: 442 nM
IC50 [3]: 535 nM
IC50 [4]: 274 nM
IC50 [5]: 268 nM
SMILES: O=C(C=Cn1cnc(-c2cc(C(F)(F)F)cc(C(F)(F)F)c2)n1)NNc1cnccn1 + Cc1ccccc1N=Nc1ccc(NC(=O)c2ccnn2C)c(C)c1
viability, T/C [6]: 76.4%
viability, T/C [7]: 79.8%
viability, T/C [8]: 61.7%
viability, T/C [9]: 54.5%
viability, T/C (second compound 0.1 µM, first compound 0.949 µM): 43.7%
viability, T/C (second compound 0.1 µM, first compound 3 µM): 34.4%
viability, T/C [10]: 72%
viability, T/C [11]: 62.8%
viability, T/C [12]: 60.8%
viability, T/C [13]: 49.8%
viability, T/C (second compound 0.316 µM, first compound 0.949 µM): 48.6%
viability, T/C (second compound 0.316 µM, first compound 3 µM): 36.7%
viability, T/C [14]: 70.5%
viability, T/C [15]: 66.9%
viability, T/C [16]: 58%
viability, T/C [17]: 44.7%
viability, T/C (second compound 1 µM, first compound 0.949 µM): 57.1%
viability, T/C (second compound 1 µM, first compound 3 µM): 40.3%
viability, T/C [18]: 64.1%
viability, T/C [19]: 63.6%
viability, T/C [20]: 56.2%
viability, T/C [21]: 46.3%
viability, T/C (second compound 3.16 µM, first compound 0.949 µM): 44.5%
viability, T/C (second compound 3.16 µM, first compound 3 µM): 35.4%
viability, T/C [22]: 65.5%
viability, T/C [23]: 59.7%
viability, T/C [24]: 52.5%
viability, T/C [25]: 51%
viability, T/C (second compound 10 µM, first compound 0.949 µM): 45.4%
viability, T/C (second compound 10 µM, first compound 3 µM): 39%

IC50 [1]: > 10000 nM
IC50 [2]: > 10000 nM
IC50 [3]: > 10000 nM
IC50 [4]: > 10000 nM
IC50 [5]: > 10000 nM
SMILES: CC(C)c1c(-c2ccccc2)nc2c(C#N)c[nH]n2c1=O + Cc1ccccc1N=Nc1ccc(NC(=O)c2ccnn2C)c(C)c1
viability, T/C (second compound 0.1 µM, first compound 0.0316 µM): 91.7%
viability, T/C (second compound 0.1 µM, first compound 0.1 µM): 101%
viability, T/C (second compound 0.1 µM, first compound 0.316 µM): 85.9%
viability, T/C (second compound 0.1 µM, first compound 1 µM): 103%
viability, T/C (second compound 0.1 µM, first compound 3.16 µM): 101%
viability, T/C (second compound 0.1 µM, first compound 10 µM): 93.7%
viability, T/C (second compound 0.316 µM, first compound 0.0316 µM): 99.1%
viability, T/C (second compound 0.316 µM, first compound 0.1 µM): 94.6%
viability, T/C (second compound 0.316 µM, first compound 0.316 µM): 86.6%
viability, T/C (second compound 0.316 µM, first compound 1 µM): 93.9%
viability, T/C (second compound 0.316 µM, first compound 3.16 µM): 86%
viability, T/C (second compound 0.316 µM, first compound 10 µM): 91.1%
viability, T/C (second compound 1 µM, first compound 0.0316 µM): 84%
viability, T/C (second compound 1 µM, first compound 0.1 µM): 85%
viability, T/C (second compound 1 µM, first compound 0.316 µM): 87.7%
viability, T/C (second compound 1 µM, first compound 1 µM): 84.8%
viability, T/C (second compound 1 µM, first compound 3.16 µM): 91%
viability, T/C (second compound 1 µM, first compound 10 µM): 91.6%
viability, T/C (second compound 3.16 µM, first compound 0.0316 µM): 87.7%
viability, T/C (second compound 3.16 µM, first compound 0.1 µM): 89.6%
viability, T/C (second compound 3.16 µM, first compound 0.316 µM): 72.8%
viability, T/C (second compound 3.16 µM, first compound 1 µM): 84.5%
viability, T/C (second compound 3.16 µM, first compound 3.16 µM): 82.9%
viability, T/C (second compound 3.16 µM, first compound 10 µM): 77.7%
viability, T/C (second compound 10 µM, first compound 0.0316 µM): 75.4%
viability, T/C (second compound 10 µM, first compound 0.1 µM): 78.3%
viability, T/C (second compound 10 µM, first compound 0.316 µM): 82.1%
viability, T/C (second compound 10 µM, first compound 1 µM): 79.3%
viability, T/C (second compound 10 µM, first compound 3.16 µM): 75.9%
viability, T/C (second compound 10 µM, first compound 10 µM): 82.9%

IC50 [1]: 1.86 nM
IC50 [2]: 2.2 nM
IC50 [3]: 2.21 nM
IC50 [4]: 1.59 nM
IC50 [5]: 1.99 nM
SMILES: CC(C)CC(NC(=O)C(Cc1ccccc1)NC(=O)c1cnccn1)B(O)O (centres undefined) + CC(CO)NC(=O)c1cc(-c2ccc(Cl)cc2)nn(-c2cnn(C)c2)c1=O
viability, T/C [26]: 106%
viability, T/C [27]: 10.4%
viability, T/C [6]: 2.11%
viability, T/C [7]: 2.02%
viability, T/C [8]: 1.92%
viability, T/C [9]: 3.28%
viability, T/C [28]: 123%
viability, T/C [29]: 22.9%
viability, T/C [10]: 2.66%
viability, T/C [11]: 3.45%
viability, T/C [12]: 3.14%
viability, T/C [13]: 2.44%
viability, T/C [30]: 123%
viability, T/C [31]: 23.5%
viability, T/C [14]: 1.76%
viability, T/C [15]: 2.42%
viability, T/C [16]: 1.86%
viability, T/C [17]: 3.98%
viability, T/C [32]: 80.2%
viability, T/C [33]: 13.3%
viability, T/C [18]: 3.01%
viability, T/C [19]: 2.25%
viability, T/C [20]: 2.47%
viability, T/C [21]: 1.67%
viability, T/C [34]: 122%
viability, T/C [35]: 10.3%
viability, T/C [22]: 1.69%
viability, T/C [23]: 2.43%
viability, T/C [24]: 2.25%
viability, T/C [25]: 1.87%

IC50 [1]: > 300 nM
IC50 [2]: 288 nM
IC50 [3]: > 300 nM
IC50 [4]: > 300 nM
IC50 [5]: > 300 nM
SMILES: Nc1ncn(C2CC(O)C(CO)S2)c(=O)n1 (centres undefined) + CC(CO)NC(=O)c1cc(-c2ccc(Cl)cc2)nn(-c2cnn(C)c2)c1=O
viability, T/C [26]: 65.6%
viability, T/C [27]: 57.9%
viability, T/C [6]: 65%
viability, T/C [7]: 76.6%
viability, T/C [8]: 80.2%
viability, T/C [9]: 85.5%
viability, T/C [28]: 72.1%
viability, T/C [29]: 112%
viability, T/C [10]: 70.8%
viability, T/C [11]: 104%
viability, T/C [12]: 65.7%
viability, T/C [13]: 49.2%
viability, T/C [30]: 69.9%
viability, T/C [31]: 66.6%
viability, T/C [14]: 78.5%
viability, T/C [15]: 118%
viability, T/C [16]: 43.9%
viability, T/C [17]: 89.8%
viability, T/C [32]: 71%
viability, T/C [33]: 80.3%
viability, T/C [18]: 75.6%
viability, T/C [19]: 76%
viability, T/C [20]: 72.2%
viability, T/C [21]: 92.9%
viability, T/C [34]: 67.4%
viability, T/C [35]: 74.7%
viability, T/C [22]: 76.2%
viability, T/C [23]: 71.9%
viability, T/C [24]: 102%
viability, T/C [25]: 111%

IC50 (curve of compound): 3720 nM and 3860 nM and > 10000 nM
SMILES: COc1ccc([C@@H](O)c2cc(-c3ncnc4cc(N5CCOCC5)ccc34)c(F)cc2Cl)nn1
viability, T/C (compound 0.0316 µM): 110% and 102% and 97.7%
viability, T/C (compound 0.1 µM): 110% and 106% and 123%
viability, T/C (compound 0.316 µM): 86.4% and 91.7% and 70%
viability, T/C (compound 1 µM): 69.8% and 77.5% and 73.8%
viability, T/C (compound 3.16 µM): 54.8% and 51.5% and 64.2%
viability, T/C (compound 10 µM): 36.5% and 39.1% and 48.6%

IC50 (curve of compound): > 3000 nM
SMILES: CCN(c1cc(-c2ccc(CN3CCOCC3)cc2)cc(C(=O)NCc2c(C)cc(C)[nH]c2=O)c1C)C1CCOCC1
viability, T/C (compound 0.00949 µM): 95.9% and 98.2% and 103%
viability, T/C (compound 0.03 µM): 89.1% and 111% and 60.8%
viability, T/C (compound 0.0949 µM): 106% and 89.9% and 90.6%
viability, T/C (compound 0.3 µM): 105% and 95.1% and 99.1%
viability, T/C (compound 0.949 µM): 104% and 115% and 88.1%
viability, T/C (compound 3 µM): 95.5% and 93.6% and 130%
